For data set [1], the system named is HCV replicon cells (1b-Con1). Nature of the data set: Replicon activity assay (cell-based anti-HCV activity). The conditions noted are these: Hepatitis C virus, 72 h, three days post-dosing, replicon RNA level by real-time RT-PCR, read-out: EC50 (1b) Range. The method, then:
(§1) To measure cell-based anti-HCV activity of the compounds of the present invention, replicon cells (1b-Con1) are seeded at 5000 cells/well in 96-well plates one day prior to treatment with a compound of the invention. Various concentrations of a test compound of the invention in DMSO are then added to the replicon cells, with the final concentration of DMSO at 0.5% and fetal bovine serum at 10% in the assay media. Cells are harvested three days post-dosing, and the replicon RNA level is determined using real-time RT-PCR (Taqman assay) with GAPDH RNA as endogenous control. EC50 values are calculated from experiments with 10 serial twofold dilutions of the inhibitor in triplicate. To measure cytotoxicity in replicon cells of an inhibitor, an MTS assay is performed according to the manufacturer's protocol for CellTiter 96 Aqueous One Solution Cell Proliferation Assay (Promega, Cat #G3580) three days post dosing on cells treated identically as in replicon activity assays. […] Cytotoxicity in other types of cells may be measured using the same MTS protocol.
(§2) Data were obtained using this method for selected compounds of the present invention, and are set forth below in Table 2.
In general terms: In antiviral work, replicon cells carry a viral genome segment that copies itself.

Data set [2] can be described thus: Cytotoxicity assay in replicon cells (MTS). The class given is cell-based. The settings on record: HCV replicon cells (1b-Con1), three days post dosing, head prints EDU, method MTS, read-out: CC50 (EDU) Range. Here is the method: as §1, §2

Structures are written as SMILES. A value given as a limit tells only on which side of the number the result lay.

For the compound `COC(=O)CCCCO[P@@]1(=O)OC[C@H]2O[C@@H](n3ccc(=O)[nH]c3=O)[C@](C)(Cl)[C@@H]2O1` [Compound 23A], the EC50 – broadly, the midpoint of the concentration-response curve – in data set [1] fell in the range of 0.25 to 1 µM. Besides, the CC50 – broadly, the concentration at which the toxic effect on the cells reaches its halfway point – at 3 days in data set [2] is more than 50 µM.

For `COC(=O)CCCCO[P@]1(=O)OC[C@H]2O[C@@H](n3ccc(=O)[nH]c3=O)[C@](C)(Cl)[C@@H]2O1` [Compound 23B], the EC50 in data set [1] was 1 to 10 µM. In addition, in data set [2], the CC50 at 3 days is more than 50 µM.

Take `C#C[C@@]1(O)[C@@H]2O[P@@](=O)(OCCCCC(=O)OC3CCCC3)OC[C@H]2O[C@H]1n1ccc(=O)[nH]c1=O` [Compound 24A]: the EC50 in data set [1] was in the range of 1 to 10 µM. Moreover, the CC50 at 3 days in data set [2] was more than 50 µM.

As for `C#C[C@@]1(O)[C@@H]2O[P@](=O)(OCCCCC(=O)OC3CCCC3)OC[C@H]2O[C@H]1n1ccc(=O)[nH]c1=O` [Compound 24B], the EC50 in data set [1] was not above 0.25 µM. The CC50 at 3 days in data set [2] was more than 50 µM.

In the case of `C#C[C@]1(C)[C@@H]2O[P@@](=O)(OCCC(=O)OC(C)C)OC[C@H]2O[C@H]1n1ccc(=O)[nH]c1=O` [Compound 26A], the EC50 in data set [1] was more than 10 µM. Further, the CC50 at 3 days in data set [2] is more than 50 µM.

On to `C#C[C@]1(C)[C@@H]2O[P@](=O)(OCCC(=O)OC(C)C)OC[C@H]2O[C@H]1n1ccc(=O)[nH]c1=O` [Compound 26B], for which, in data set [1], the EC50 is more than 10 µM. Also, the CC50 at 3 days in data set [2] is more than 50 µM.

For `CC(C)OC(=O)CCO[P@@]1(=O)OC[C@H]2O[C@@H](n3ccc(=O)[nH]c3=O)[C@](C)(N)[C@@H]2O1` [Compound 28A], the EC50 in data set [1] is more than 10 µM. In data set [2], the CC50 at 3 days is more than 50 µM.

In the case of `CC(C)OC(=O)CCO[P@]1(=O)OC[C@H]2O[C@@H](n3ccc(=O)[nH]c3=O)[C@](C)(N)[C@@H]2O1` [Compound 28B], the EC50 in data set [1] was more than 10 µM. Further, the CC50 at 3 days in data set [2] was more than 50 µM.

The record behind these values is patent US10899788B2, “Cyclic phosphate substituted nucleoside compounds and methods of use thereof for the treatment of viral diseases” (MERCK SHARP & DOHME CORP., priority 2016, dated 2021).
